From patent US20030129193A1 (priority 2001, published 2003)

Legend:
[1] = test system: C1300 Muγ mouse neuroblastoma; test: In vivo tumor thrombosis and anti-tumor effects, C1300 (Muγ); parameters: species or system BALB/c nu/nu mice
[2] = test system: C1300 mouse neuroblastoma; test: In vivo tumor thrombosis, C1300; parameters: species or system BALB/c nu/nu mice; conditions: large C1300 tumors (>1000 mm^3), 24 hours after injection
Source text: Tumor test systems were of four types: i) 3LL mouse lung carcinoma growing subcutaneously in C57BL/6 mice; ii) C1300 mouse neuroblastoma growing subcutaneously in BALB/c nu/nu mice; iii) HT29 human colorectal carcinoma growing subcutaneously in BALB/c nu/nu mice; and iv) C1300 Muγ mouse neuroblastoma growing subcutaneously in BALB/c nu/nu mice. The C1300 Muγ tumor is an interferon-γ secreting transfectant derived from the C 1300 tumor (Watanabe et al., 1989).
To establish tumors, 10^6 to 1.5×10^7 tumor cells were injected subcutaneously into the right anterior flank of the mice. When tumors had grown to various sizes, mice were randomly assigned to different study groups. […] Fab′, or bispecific antibody. Other mice received equivalent quantities IgG, Fab′ or bispecific antibody alone. The injections were performed slowly into one of the tail veins over approximately 45 seconds, usually followed by 200 μl of saline.
Twenty-four hours after being injected with tTF or immunoglobulin-tTF conjugates, the mice were anesthetized with metophane and were exsanguinated by perfusion with heparinized saline. Tumors and normal tissues were excised and immediately fixed in 3% (v/v) formalin. Paraffin sections were cut and stained with hematoxylin and eosin. Blood vessels having open lumens containing erythrocytes and blood vessels containing thrombi were counted. […]

[3] = test system: H460 human non-small cell lung carcinoma; test: Anti-tumor effects, H460; type: in vivo, nu/nu mice
Method: The tumor test systems were: i) L540 human Hodgkin's disease tumors growing in SCID mice; ii) C1300 Muγ (interferon-secreting) neuroblastoma growing in nu/nu mice; iii) H460 human non-small cell lung carcinoma growing in nu/nu mice. To establish solid tumors, 1.5×10^7 tumor cells were injected subcutaneously into the right anterior flank of SCID or BALB/c nu/nu mice (Charles River Labs., Wilmingham, Mass.). When the tumors had grown to various diameters mice were assigned to different experimental groups, each containing 4 to 9 mice.
Other mice received equivalent quantities of bispecific antibody alone. The injections were performed over ˜45 seconds into one of the tail veins, followed by 200 μl of saline. The infusions were repeated six days later. Perpendicular tumor diameters were measured at regular intervals and tumor volumes were calculated.

[4] = test system: citrated mouse or human plasma; test: In vitro coagulation assay on A20 cells; type: cell-based
[5] = test system: thrombin-antithrombin-complexes (TAT); test: Assessment of coagulation parameters: TAT; type: in vivo, mice; conditions: plasma, three days after i.v. treatment, tTF alone
Method: At the time of autopsy, citrated blood was sampled from the vena cava and thrombocyte-free plasma was prepared by centrifugation. The plasma was stored at −80° C. until further analysis. Thrombin-Antithrombin-complexes were detected with the Enzygnost® TAT micro-assay (Dade-Behring, Marburg, Germany) according to the manufacturer's instructions. ATIII levels were determined using the Coamatic® antithrombin-assay (Haemochrom, Essen, Germany) following the manufacturer's instructions. Changes in the blood levels of thrombin and plasmin were detected by mixing citrated plasma with the respective chromogenic substrates S2238 and S2403 (Haemochrom, Essen, Germany) and measuring the increase of the absorption at 405 nm by an ELISA reader.

TNFα = TNFα serum levels in treated animals; type: in vivo, mice; conditions: tTF containing no endotoxin (n=6), any time point
Method: Mice were closely observed after treatment for clinical signs of toxicity and clinical status was documented at defined time points (5 minutes, 10 minutes, 15 minutes, 30 minutes, 1 hour, 2 hours, 24 hours, 48 hours, 72 hours). Blood samples were taken from the tail vein at 1 hour, 2 hours and 24 hours to measure TNFα blood levels. Three days after treatment, the mice were anesthetized, blood samples were taken from the vena cava for coagulation tests, and an autopsy was performed to document any changes in gross pathology. Tumors, lymph node metastases and the major normal organs (heart, lung, brain, liver, kidney, colon, spleen, pancreas) were harvested and prepared for histological analysis.
TNFα levels in serum were determined using the Quantikine-M kit (R&D Systems, Minneapolis, Minn.) according to the manufacturer's instructions.

immobilized tTF = biological target: T1, immobilized tTF (Homo sapiens, UniProt P13726); test: Real time binding study (surface plasmon resonance); conditions: alone or preincubated with endotoxin or factor VIIa
T1 construct: the extracellular domain of the mature Tissue Factor protein (amino acid 1-219 of the mature protein; inferred from Ni-NTA purification); made in house; host or cells: E. coli (periplasmic secretion, vector pswc7)

[6] = test system: 2F2B mouse endothelial cells; test: Binding of tTF to endothelial cells (FACS, cell bound coagulation assay); type: cell-based
Method: Cells were washed and coagulation factor mix (as described above) was added. S2765 substrate was added and Factor Xa generation was measured as described above.
Fluorescent cells were detected on a flow cytometer (Becton Dickinson, San Jose, Calif.).

F9 sarcoma = test: Sarcoma mouse model, tumor necrosis; type: in vivo, balb/c nude mice; conditions: endotoxin-free tTF, 4 μg
Method: 1×10^7 F9 sarcoma cells were injected subcutaneously into the right flank of balb/c nude mice. Subcutanous tumors were measured with a caliper in three perpendicular directions a, b, and c, and volumes calculated according to the formula V=π/6×a×b×c. Treatment was initiated when subcutaneous tumors reached a size of 150 to 300 μl.
Reagents were administered into the lateral tail vein.
Mice were closely observed after treatment for clinical signs of toxicity and clinical status was documented at defined time points. Three days after treatment, mice were sacrificed and tumors were harvested. Paraffin embedded tissues were stained with hematoxilin and eosin (H&E). Tissue sections were analyzed on a light microscope by two independent investigators and histological findings were documented. Tumor sections with necrotic areas were scanned with a GS-700 imaging densitometer (Biorad, Hercules, Calif.) and areas of necrosis were calculated as % of total section area.

T1 sequence (P13726 33-251): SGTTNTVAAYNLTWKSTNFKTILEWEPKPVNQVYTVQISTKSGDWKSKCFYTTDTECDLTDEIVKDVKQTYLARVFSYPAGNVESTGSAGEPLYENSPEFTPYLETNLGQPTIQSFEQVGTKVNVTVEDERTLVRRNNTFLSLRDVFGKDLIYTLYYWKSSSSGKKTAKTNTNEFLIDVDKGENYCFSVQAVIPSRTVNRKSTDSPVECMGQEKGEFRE

Substance: tTF: extracellular domain of the mature Tissue Factor protein (amino acid 1-219)
- thrombosis of tumor vessels ([1]; 24 hours after injection): practically all vessels in all regions of the tumor were thrombosed
- effect on vessels in small tumors ([1]; small (<500 mm^3) C1300 and C1300 Muγ): largely unaffected
- tumor growth ([1]; tTF alone or mixed with control bispecific antibodies vs antibodies or saline alone): grew significantly more slowly
- thrombosis of tumor vessels [2]: virtually all vessels were thrombosed
- effect on growth rate ([3]; first treatment, small (250 mm^3) tumors): little effect on growth rate
- tumor volume after regression ([3]; second treatment given at 900 mm^3): 550 mm^3
- plasma coagulation time ([4]; 10^−10 M tTF219, absence of Factor VIIa): 60 s
- plasma coagulation time ([4]; 10^−10 M tTF219, presence of 13.5 nM Factor VIIa): 20 s
- coagulation time ([4]; 20,000 molecules per cell): 140 s
- coagulation time ([4]; 300,000 molecules of tTF per cell): 40 s
- concentration at which plasma coagulated in 50 seconds ([4]; localized on A20 cells via B21-2/10H10): 3 nM
- increase in coagulation-inducing potency ([4]; presence of 0.1 nM Factor VIIa): 2-5 fold
- time until fibrin strands visible after addition of plasma ([4]; tTF bound to A20 cells by B21-2/10H10, mouse plasma): 36 s
- TAT [5]: 25.4 ng/mL
- TNFα serum level (TNFα): could not be detected
- binding to immobilized tTF (immobilized tTF): did not bind to or homodimerize with immobilized tTF
- binding to endothelial cells expressing tissue factor [6]: no binding of tTF to endothelial cells
- average tumor tissue necrosis (F9 sarcoma): 45%
